# Measured values reported in patent US20060223073A1, “Methods of using a DNase I-like enzyme” (priority 2005, published 2006).
# Biological target: bovine pancreatic DNase I (Bos taurus, UniProt P00639)
# Conditions: for reduction of enzyme activity induced by the addition of salt: 100 mM sodium chloride added to reaction with 40% (v/v) alcohol (FIG. 2); for DNase I activity, % of Standard conditions: alcohol at 40% (v/v) in the Standard reaction, without sodium chloride (FIG. 2)
# Experimental: The enzymatic hydrolysis of calf thymus genomic DNA was assayed using a method modified from that described by Desai and Shankar (Eur. J. Biochem., 2000; 267: 5123-5135). The standard reaction mixture was 0.1 mL volume, containing 30 μg of sonicated native calf thymus genomic DNA (Sigma, St. Louis Mo., #D-3664), in a buffer solution composed of 100 mM Tris HCl(pH 8.0)/10 mM MgSO4/1 mM CaCl2, with appropriately diluted DNase I (usually 0.02-1.0 Enzyme Units, as defined below). The reaction was initiated by the addition of enzyme, with incubation at room temperature for a defined period of time (usually 10-20 minutes), after which the reaction was terminated by rapid sequential addition of 0.1 mL of 1 mg/mL Bovine Serum Albumin (Sigma, #A3803) and 1.0 mL of ice cold 2% (v/v) Perchloric Acid. The terminated reaction mixture was vortex mixed, then chilled on ice for 20-30 minutes, follwed by centrifugation at 16,000×g for 10 minutes at 4 degrees centrigrade. The clarified supernatant contains acid-soluble oligonucleotides liberated by the action of DNase I-like activity, at concentrations determined using absorbance measurements determined in a 1 cm pathlength cell in the Agilent 8453 spectrophotometer (Agilent Technologies, Wilmington Del.). A molar extinction coefficient of 10,000 M^−1cm^−1 was employed for oligonucleotide concentration estimation in the acidic solution. Unit activity under these assay conditions is defined as umol of acid-soluble oligonucleotides generated per minute at 25 degrees centigrade. In the experiments shown in the examples that follow, bovine pancreatic DNase I is employed to illustrate the effects of various manipulations on the activity of this enzyme. Typically, the reaction employs approximately 0.1 enzyme units, as defined by the Kunitz assay, as discussed above (see Kunitz. J. Gen. Physiol. 1950; 33:349-362).
# Bovine pancreatic DNase I (Fermentas, #EN0523) was assayed for gDNA hydrolytic activity, as described above, using the Standard reaction conditions, but modified by the inclusion of various quantities of iso-propanol (i-propanol, 2-propanol), with or without the further inclusion of sodium chloride at 100 mM.
# Chain of bovine pancreatic DNase I (P00639 23-282): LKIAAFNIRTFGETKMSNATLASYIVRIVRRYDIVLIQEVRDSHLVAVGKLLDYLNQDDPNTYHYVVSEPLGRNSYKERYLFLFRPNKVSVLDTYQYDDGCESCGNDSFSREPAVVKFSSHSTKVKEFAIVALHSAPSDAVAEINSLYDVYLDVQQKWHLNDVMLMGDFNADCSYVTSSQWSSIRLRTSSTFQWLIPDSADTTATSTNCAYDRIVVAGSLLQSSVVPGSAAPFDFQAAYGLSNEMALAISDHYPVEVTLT
Molecule,reduction of enzyme activity induced by the addition of salt,"DNase I activity, % of Standard conditions","DNase I activity, % of the Standard activity level (20% i-propanol added to solution containing 100 mM sodium chloride (FIG. 1))","DNase I activity relative to standard conditions (20% i-propanol, no sodium chloride, room temperature (FIG. 1))",DNase I enzyme activity observed (high salt (100 mM sodium chloride) and high alcohol content (FIG. 1)),"DNase I activity, % of the standard condition (higher concentrations of i-propanol (above 20%, up to and above 80%), no sodium chloride (FIG. 1))","DNase I activity, % of Standard reaction conditions (alcohol at 40% (v/v) plus 100 mM sodium chloride (FIG. 2))"
CCO [Ethanol],three-fold reduction,40%,,,,,
"CC(C)O [i-propanol, iso-propanol]",least prevented the inhibition of the enzyme by salt,40%,101%,more than doubling the activity,greater than 50%,about 50%,
n-propanol,,about 10%,,,,,less than 5%
